In the supplement of paper PMC10307832:

Assays:
Experiment in all cases: relative viability (nuclei count vs DMSO), 5 days (fraction); higher = more cells survive
AGI-6780 + Bortezomib = compound: O=C(Nc1cccc(C(F)(F)F)c1)Nc1cc(S(=O)(=O)NC2CC2)ccc1-c1ccsc1 [AGI-6780] + CC(C)C[C@H](NC(=O)[C@H](Cc1ccccc1)NC(=O)c1cnccn1)B(O)O [Bortezomib] (partner 0.002 µM)
Outline: (§1)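 Lung cancer cell lines were pin-tool dosed in 1536-well plates on the day after seeding, with either a lone drug or a fixed anchor-drug dose plus five library-drug doses (not always all listed) in √10 steps. Nuclei were counted on 4× images after 5 days. Relative viability is the ratio of treated-well to vehicle-well nuclei counts, with each value a median of duplicate plates.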

AGI-6780 + Alpelisib = compound: O=C(Nc1cccc(C(F)(F)F)c1)Nc1cc(S(=O)(=O)NC2CC2)ccc1-c1ccsc1 [AGI-6780] + Cc1nc(NC(=O)N2CCC[C@H]2C(N)=O)sc1-c1ccnc(C(C)(C)C(F)(F)F)c1 [Alpelisib] (partner 2 µM)
Outline: as §1

AGI-6780 + Dasatinib = compound: O=C(Nc1cccc(C(F)(F)F)c1)Nc1cc(S(=O)(=O)NC2CC2)ccc1-c1ccsc1 [AGI-6780] + Cc1nc(Nc2ncc(C(=O)Nc3c(C)cccc3Cl)s2)cc(N2CCN(CCO)CC2)n1 [Dasatinib] (partner 0.075 µM)
Outline: as §1

AGI-6780 + Palbociclib = compound: O=C(Nc1cccc(C(F)(F)F)c1)Nc1cc(S(=O)(=O)NC2CC2)ccc1-c1ccsc1 [AGI-6780] + CC(=O)c1c(C)c2cnc(Nc3ccc(N4CCNCC4)cn3)nc2n(C2CCCC2)c1=O [Palbociclib] (partner 0.5 µM)
Outline: as §1

| Cell Line | relative viability (AGI-6780 + Bortezomib; first compound 0.08 µM) | relative viability (AGI-6780 + Bortezomib; first compound 0.253 µM) | relative viability (AGI-6780 + Bortezomib; first compound 0.8 µM) | relative viability (AGI-6780 + Bortezomib; first compound 2.53 µM) | relative viability (AGI-6780 + Bortezomib; first compound 8 µM) | relative viability (AGI-6780 + Alpelisib; first compound 0.08 µM) | relative viability (AGI-6780 + Alpelisib; first compound 0.253 µM) | relative viability (AGI-6780 + Alpelisib; first compound 0.8 µM) | relative viability (AGI-6780 + Alpelisib; first compound 2.53 µM) | relative viability (AGI-6780 + Alpelisib; first compound 8 µM) | relative viability (AGI-6780 + Dasatinib; first compound 0.08 µM) | relative viability (AGI-6780 + Dasatinib; first compound 0.253 µM) | relative viability (AGI-6780 + Dasatinib; first compound 0.8 µM) | relative viability (AGI-6780 + Dasatinib; first compound 2.53 µM) | relative viability (AGI-6780 + Dasatinib; first compound 8 µM) | relative viability (AGI-6780 + Palbociclib; first compound 0.08 µM) | relative viability (AGI-6780 + Palbociclib; first compound 0.253 µM) | relative viability (AGI-6780 + Palbociclib; first compound 0.8 µM) | relative viability (AGI-6780 + Palbociclib; first compound 2.53 µM) | relative viability (AGI-6780 + Palbociclib; first compound 8 µM) |
| --- | --- | --- | --- | --- | --- | --- | --- | --- | --- | --- | --- | --- | --- | --- | --- | --- | --- | --- | --- | --- |
| NCI-H2126 | 1.17 | 1.07 | 1.11 | 1.09 | 1.09 | 0.812 | 0.72 | 0.767 | 0.696 | 0.741 | 0.632 | 0.657 | 0.566 | 0.381 | 0.586 | 0.38 | 0.357 | 0.36 | 0.391 | 0.341 |
| LXF-289 | 1.02 | 0.993 | 0.976 | 1.03 | 0.957 | 1.03 | 1.04 | 1.07 | 1.09 | 1.03 | 0.228 | 0.213 | 0.192 | 0.155 | 0.204 | 0.606 | 0.65 | 0.586 | 0.586 | 0.6 |
| NCI-H1437 | 0.562 | 0.569 | 0.703 | 0.563 | 0.747 | 1.07 | 0.888 | 1.04 | 0.882 | 0.885 | 0.371 | 0.493 | 0.404 | 0.306 | 0.342 | 0.296 | 0.365 | 0.25 | 0.347 | 0.322 |
| NCI-H647 | 1 | 1.01 | 0.735 | 1.05 | 1.41 | 1.19 | 1.16 | 1.24 | 1.06 | 1.13 | 0.186 | 0.202 | 0.23 | 0.175 | 0.448 | 0.416 | 0.36 | 0.48 | 0.332 | 0.422 |
| NCI-H838 | 0.965 | 0.692 | 0.952 | 1.05 | 1.18 | 1.05 | 0.927 | 1.01 | 0.825 | 0.959 | 0.312 | 0.357 | 0.307 | 0.261 | 0.321 | 0.252 | 0.267 | 0.221 | 0.218 | 0.224 |
| NCI-H727 | 1.08 | 0.987 | 0.786 | 0.648 | 0.819 | 0.679 | 0.588 | 0.742 | 0.491 | 0.548 | 0.35 | 0.297 | 0.386 | 0.314 | 0.398 | 0.669 | 0.671 | 0.605 | 0.56 | 0.645 |
| NCI-H661 | 0.78 | 0.933 | 0.758 | 0.694 | 0.771 | 0.483 | 0.713 | 0.791 | 0.51 | 0.59 | 0.819 | 0.998 | 0.986 | 0.858 | 1.02 | 0.418 | 0.41 | 0.411 | 0.371 | 0.432 |
| 201T | 1.11 | 0.981 | 1.02 | 1.1 | 1.1 | 1.11 | 1.05 | 0.991 | 0.941 | 1.01 | 0.613 | 0.53 | 0.564 | 0.476 | 0.6 | 0.359 | 0.367 | 0.353 | 0.329 | 0.344 |
